# Values quoted from earlier work in US12565499B2, “Compounds and methods” (INTRA-CELLULAR THERAPIES, INC., priority 2012, dated 2026).
# Tested on: mice
# Conditions: chronic administration; Berton et al., Science (2006) 311:864-868
compound,measurement,value
CNCCC(Oc1ccc(C(F)(F)F)cc1)c1ccccc1 (stereo not shown) [fluoxetine],reversal of isolation behavior in the social defeat/resident intruder model,reversed
